Reference: the NIST ThermoML archive (doi:10.1007/s10765-012-1159-3)
Numbers after ± are expanded uncertainties.

Settings: 101.33 kPa, Liquid; for kinematic viscosity: Capillary tube (Ostwald / Ubbelohde) method; for mass density: Vibrating tube method

Structure (SMILES)	kinematic viscosity (293.15 K)	mass density (293.15 K)	kinematic viscosity (298.15 K)	mass density (298.15 K)
C1CCCCC1 [cyclohexane]	1.256e-06 ± 1.1e-08 m2/s	778.7 ± 0.6 kg/m3	1.154e-06 ± 1e-08 m2/s	773.9 ± 0.6 kg/m3
CCCCCC [hexane]	4.7e-07 ± 5.6e-09 m2/s	659.4 ± 0.6 kg/m3	4.49e-07 ± 5.5e-09 m2/s	654.9 ± 0.6 kg/m3
CCc1ccccc1 [ethylbenzene]	7.767e-07 ± 7.4e-09 m2/s	867.1 ± 0.6 kg/m3	7.323e-07 ± 7.2e-09 m2/s	862.7 ± 0.6 kg/m3
Cc1ccccc1 [toluene]	6.8e-07 ± 6.8e-09 m2/s	866.7 ± 0.6 kg/m3	6.41e-07 ± 6.6e-09 m2/s	862 ± 0.6 kg/m3
CCCCCCCC [octane]	7.734e-07 ± 7.4e-09 m2/s	702.5 ± 0.6 kg/m3	7.313e-07 ± 7.1e-09 m2/s	698.5 ± 0.6 kg/m3
